In the supplement of paper PMC10307832:

Experiments:
Assay in all cases: relative viability (nuclei count vs DMSO), 5 days (fraction); higher = more cells survive
HCC-78 = test system: HCC-78
Procedure, shortened: (§1)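 Relative viability divides the nuclei count in treated wells by that in vehicle wells. Lung cancer cell lines were seeded in 1536-well plates, dosed by pin tool the next day, and fixed and stained after 5 days in one step with final 0.05% Triton X-100, 1% formaldehyde and 1 ug/ml Hoechst. Dosing was a single drug or a fixed anchor-drug dose plus five library-drug doses (not always all listed) in √10 steps, and values are medians of duplicate plates imaged at 4×.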

UMC-11 = test system: UMC-11
Procedure, shortened: as §1

NCI-H727 = test system: NCI-H727
Procedure, shortened: as §1

HCC-44 = test system: HCC-44
Procedure, shortened: as §1

LOU-NH91 = test system: LOU-NH91
Procedure, shortened: as §1

NCI-H838 = test system: NCI-H838
Procedure, shortened: as §1

NCI-H1666 = test system: NCI-H1666
Procedure, shortened: as §1

HCC-366 = test system: HCC-366
Procedure, shortened: as §1

ABC-1 = test system: ABC-1
Procedure, shortened: as §1

201T = test system: 201T
Procedure, shortened: as §1

NCI-H1755 = test system: NCI-H1755
Procedure, shortened: as §1

NCI-H2009 = test system: NCI-H2009
Procedure, shortened: as §1

NCI-H1734 = test system: NCI-H1734
Procedure, shortened: as §1

NCI-H358 = test system: NCI-H358
Procedure, shortened: as §1

SW 1573 = test system: SW 1573
Procedure, shortened: as §1

NCI-H1650 = test system: NCI-H1650
Procedure, shortened: as §1

NCI-H520 = test system: NCI-H520
Procedure, shortened: as §1

LK-2 = test system: LK-2
Procedure, shortened: as §1

BEN = test system: BEN
Procedure, shortened: as §1

NCI-H2405 = test system: NCI-H2405
Procedure, shortened: as §1

NCI-H2347 = test system: NCI-H2347
Procedure, shortened: as §1

NCI-H1355 = test system: NCI-H1355
Procedure, shortened: as §1

With `O=c1[nH]c2ccccc2n1C1CCN(CCCC(c2ccc(F)cc2)c2ccc(F)cc2)CC1` [Pimozide] + Nc1ncn([C@H]2C[C@H](O)[C@@H](CO)O2)c(=O)n1 [Decitabine] (partner 2 µM) the relative viability (HCC-78; first compound 0.08 µM) was 0.735, the relative viability (HCC-78; first compound 0.8 µM) was 0.671 and the relative viability (HCC-78; first compound 2.53 µM) was 0.671. For the same compound, the relative viability (HCC-78; first compound 8 µM) was 0.702, the relative viability (UMC-11; first compound 0.08 µM) was 0.638 and the relative viability (UMC-11; first compound 0.253 µM) was 0.579. It also gave a relative viability (UMC-11; first compound 0.8 µM) of 0.53, a relative viability (UMC-11; first compound 2.53 µM) of 0.593 and a relative viability (UMC-11; first compound 8 µM) of 1.03. It also gave a relative viability (NCI-H727; first compound 0.08 µM) of 0.834, a relative viability (NCI-H727; first compound 0.253 µM) of 0.588 and a relative viability (NCI-H727; first compound 0.8 µM) of 0.933. It also gave a relative viability (NCI-H727; first compound 2.53 µM) of 0.98, a relative viability (NCI-H727; first compound 8 µM) of 0.856 and a relative viability (HCC-44; first compound 0.08 µM) of 1.01. The relative viability (HCC-44; first compound 0.253 µM) was 0.983, the relative viability (HCC-44; first compound 0.8 µM) was 0.843 and the relative viability (HCC-44; first compound 2.53 µM) was 0.935. It also gave a relative viability (HCC-44; first compound 8 µM) of 0.919, a relative viability (LOU-NH91; first compound 0.08 µM) of 0.64 and a relative viability (LOU-NH91; first compound 0.253 µM) of 0.818. It also gave a relative viability (LOU-NH91; first compound 0.8 µM) of 0.778, a relative viability (LOU-NH91; first compound 2.53 µM) of 0.829 and a relative viability (LOU-NH91; first compound 8 µM) of 0.866. The relative viability (NCI-H838; first compound 0.08 µM) was 0.487, the relative viability (NCI-H838; first compound 0.253 µM) was 0.395 and the relative viability (NCI-H838; first compound 0.8 µM) was 0.42. It also gave a relative viability (NCI-H838; first compound 2.53 µM) of 0.43, a relative viability (NCI-H838; first compound 8 µM) of 0.469 and a relative viability (NCI-H1666; first compound 0.08 µM) of 0.688. The relative viability (NCI-H1666; first compound 0.253 µM) was 0.738, the relative viability (NCI-H1666; first compound 0.8 µM) was 0.696 and the relative viability (NCI-H1666; first compound 2.53 µM) was 0.695. For the same compound, the relative viability (NCI-H1666; first compound 8 µM) was 0.784, the relative viability (HCC-366; first compound 0.08 µM) was 0.324 and the relative viability (HCC-366; first compound 0.253 µM) was 0.34. For the same compound, the relative viability (HCC-366; first compound 0.8 µM) was 0.285, the relative viability (HCC-366; first compound 2.53 µM) was 0.346 and the relative viability (HCC-366; first compound 8 µM) was 0.296. For the same compound, the relative viability (ABC-1; first compound 0.08 µM) was 1.18, the relative viability (ABC-1; first compound 0.253 µM) was 0.831 and the relative viability (ABC-1; first compound 0.8 µM) was 1.22. The relative viability (ABC-1; first compound 2.53 µM) was 1.08, the relative viability (ABC-1; first compound 8 µM) was 1.02 and the relative viability (201T; first compound 0.08 µM) was 0.827. The relative viability (201T; first compound 0.253 µM) was 0.846, the relative viability (201T; first compound 0.8 µM) was 0.829 and the relative viability (201T; first compound 2.53 µM) was 0.844. The relative viability (201T; first compound 8 µM) was 0.711, the relative viability (NCI-H1755; first compound 0.08 µM) was 0.675 and the relative viability (NCI-H1755; first compound 0.253 µM) was 0.659. For the same compound, the relative viability (NCI-H1755; first compound 0.8 µM) was 0.624, the relative viability (NCI-H1755; first compound 2.53 µM) was 0.684 and the relative viability (NCI-H1755; first compound 8 µM) was 0.69. The relative viability (NCI-H2009; first compound 0.08 µM) was 0.442, the relative viability (NCI-H2009; first compound 0.253 µM) was 0.374 and the relative viability (NCI-H2009; first compound 0.8 µM) was 0.327. For the same compound, the relative viability (NCI-H2009; first compound 2.53 µM) was 0.436, the relative viability (NCI-H2009; first compound 8 µM) was 0.412 and the relative viability (NCI-H1734; first compound 0.08 µM) was 0.51. The relative viability (NCI-H1734; first compound 0.253 µM) was 0.489, the relative viability (NCI-H1734; first compound 0.8 µM) was 0.525 and the relative viability (NCI-H1734; first compound 2.53 µM) was 0.431. It also gave a relative viability (NCI-H1734; first compound 8 µM) of 0.509, a relative viability (NCI-H358; first compound 0.08 µM) of 0.196 and a relative viability (NCI-H358; first compound 0.253 µM) of 0.219. The relative viability (NCI-H358; first compound 0.8 µM) was 0.315, the relative viability (NCI-H358; first compound 2.53 µM) was 0.213 and the relative viability (NCI-H358; first compound 8 µM) was 0.228. It also gave a relative viability (SW 1573; first compound 0.08 µM) of 0.555, a relative viability (SW 1573; first compound 0.253 µM) of 0.52 and a relative viability (SW 1573; first compound 0.8 µM) of 0.499. For the same compound, the relative viability (SW 1573; first compound 2.53 µM) was 0.371, the relative viability (SW 1573; first compound 8 µM) was 0.384 and the relative viability (NCI-H1650; first compound 0.08 µM) was 0.287. The relative viability (NCI-H1650; first compound 0.253 µM) was 0.485, the relative viability (NCI-H1650; first compound 0.8 µM) was 0.315 and the relative viability (NCI-H1650; first compound 2.53 µM) was 0.404. The relative viability (NCI-H1650; first compound 8 µM) was 0.405, the relative viability (NCI-H520; first compound 0.08 µM) was 0.455 and the relative viability (NCI-H520; first compound 0.253 µM) was 0.428. It also gave a relative viability (NCI-H520; first compound 0.8 µM) of 0.453, a relative viability (NCI-H520; first compound 2.53 µM) of 0.519 and a relative viability (NCI-H520; first compound 8 µM) of 0.613. It also gave a relative viability (LK-2; first compound 0.08 µM) of 0.25, a relative viability (LK-2; first compound 0.253 µM) of 0.289 and a relative viability (LK-2; first compound 0.8 µM) of 0.28. The relative viability (LK-2; first compound 2.53 µM) was 0.296, the relative viability (LK-2; first compound 8 µM) was 0.33 and the relative viability (BEN; first compound 0.08 µM) was 0.805. It also gave a relative viability (BEN; first compound 0.253 µM) of 0.71, a relative viability (BEN; first compound 0.8 µM) of 0.757 and a relative viability (BEN; first compound 2.53 µM) of 0.62. The relative viability (BEN; first compound 8 µM) was 0.767, the relative viability (NCI-H2405; first compound 0.08 µM) was 0.71 and the relative viability (NCI-H2405; first compound 0.253 µM) was 0.686. It also gave a relative viability (NCI-H2405; first compound 0.8 µM) of 0.695, a relative viability (NCI-H2405; first compound 2.53 µM) of 0.69 and a relative viability (NCI-H2405; first compound 8 µM) of 0.669. For the same compound, the relative viability (NCI-H2347; first compound 0.08 µM) was 0.651, the relative viability (NCI-H2347; first compound 0.253 µM) was 0.589 and the relative viability (NCI-H2347; first compound 0.8 µM) was 0.574. The relative viability (NCI-H2347; first compound 2.53 µM) was 0.594, the relative viability (NCI-H2347; first compound 8 µM) was 0.559 and the relative viability (NCI-H1355; first compound 0.08 µM) was 0.345. The relative viability (NCI-H1355; first compound 0.253 µM) was 0.332, the relative viability (NCI-H1355; first compound 0.8 µM) was 0.339 and the relative viability (NCI-H1355; first compound 2.53 µM) was 0.339. It also gave a relative viability (NCI-H1355; first compound 8 µM) of 0.337.
